Data reported in patent US8394399B2, “Drug-enhanced adhesion prevention” (Ethicon, Inc., priority 2004, dated 2013).
Where “and” joins values, the source holds several entries; their conditions need not be identical. Equal values may be shown once.

Key:
[1] = system: adhesion formation at the sidewall injury; test: Rabbit peritoneal sidewall adhesion model, 1 week dosing via Alzet miniosmotic pump; type: in vivo; design: key to Adhesion Tenacity: 0: No adhesions; 1: mild, easily dissectible adhesions; 2: moderate adhesions; non-dissectible, does not tear organ; 3: dense adhesions; non-dissectible, tears when removed; settings: for Adhesion Area Percentage / Adhesion Tenacity: 10 microliter/hr over 7 days, sacrifice after 21 days, individual animals 1-7; for Adhesion Tenacity: score 0-3; for mean adhesion score: group mean of 7 rabbits, placebo control 100±0
Procedure: In the peritoneal sidewall model, rabbits were pre-anesthetized with 1.2 mg/kg acetylpromazine and anesthetized with a mixture of 55 mg/kg ketamine hydrochloride and 5 mg/kg xylazine intramuscularly. Following preparation for sterile surgery, a midline laparotomy was performed. A 3 cm×5 cm area of peritoneum and transversus abdominis muscle was removed on the right lateral abdominal wall. The cecum was exteriorized and digital pressure was exerted to create subserosal hemorrhages (trauma and loss of blood flow) over all cecal surfaces. The cecum was then returned to its normal anatomic position. Tranilast contained in a delivery vehicle as described below was placed in an Alzet® miniosmotic pump (Alza Corporation, Palo Alto, Calif.) to allow continuous release of the molecule through the postsurgical interval. The Alzet miniosmotic pump was placed in the subcutaneous space and a delivery tube connected the pump with the site of injury at the sidewall. Only the delivery vehicle was placed in the pump of control rabbits. The abdominal wall and skin were closed in a standardized manner.
After 21 days, the rabbits were sacrificed and the percentage of the area of the sidewall injury that was involved in adhesions was determined. In addition, the tenacity of the adhesion formed was scored using a system as follows:
With the sidewall model, an initial score to represent the overall extent of adhesions is given (0 to 3).
The percentage of a surface of the sidewall involved in adhesions to various organs are given in the tables below to quantify the overall adhesion score. A reduction in the area and the tenacity of the adhesions would be considered beneficial and efficacious.
(§1) The efficacy of Pemirolast in inhibiting adhesion formation was evaluated using a single pump, filled with one of three dosage levels of mg of Pemirolast per ml of delivery vehicle (0.625 mg/ml, 6.25 mg/ml or 62.5 mg/ml), or placebo control (saline). The drug was placed in an Alzet miniosmotic pump and delivered over 7 days at a rate of 10 microliter/hr. The animals were sacrificed after 21 days.

[2] = Necropsy observations in the sidewall adhesion study; type: in vivo, rabbit
Procedure: as §1
However, there was inflammation observed at the abdominal cavity in 1 of 7 and 3 of 7 rabbits at the medium and high dose of drug, respectively.

Cc1cccn2c(=O)c(-c3nnn[nH]3)cnc12 [Pemirolast, 9-methyl-3-(1H-tetrazol-5-yl)-4H-pyrido [1,2-α]pyrimidin-4-one potassium]
Adhesion Area Percentage ([1]; 0.625 mg/ml in pump): 80% (2×) and 100% (4×) and 70%
Adhesion Tenacity ([1]; 0.625 mg/ml in pump): 1 (5×) and 2 (2×)
mean adhesion score ([1]; 0.625 mg/ml): 90.0±4.9
Adhesion Area Percentage ([1]; 6.25 mg/ml in pump): 50% and 80% (2×) and 100% (2×) and 70% and 60%
Adhesion Tenacity ([1]; 6.25 mg/ml in pump): 1 (6×) and 2
mean adhesion score ([1]; 6.25 mg/ml, p=0.007): 77.1±7.1
Adhesion Area Percentage ([1]; 62.5 mg/ml in pump): 70% (2×) and 50% (2×) and 80% (2×) and 100%
Adhesion Tenacity ([1]; 62.5 mg/ml in pump): 2 (3×) and 1 (4×)
mean adhesion score ([1]; 62.5 mg/ml, p=0.001): 71.4±6.7
tenacity of the adhesions formed, relative to control ([1]; all dose groups, analysis of variance on the ranks): significant reductions
area of adhesion formation, relative to control ([1]; sidewall model, reductions in the groups that received the higher doses): reduced the area of adhesion formation
clinical signs associated with administration ([2]; at necropsy, all doses): no clinical signs
inflammation observed at the abdominal cavity (rabbits affected) ([2]; high dose (62.5 mg/ml)): 3 of 7
inflammation observed at the abdominal cavity (rabbits affected) ([2]; medium dose (6.25 mg/ml)): 1 of 7
